molecular target: Pseudomonas aeruginosa LpxC enzyme (Pseudomonas aeruginosa (strain ATCC 15692 / DSM 22644 / CIP 104116 / JCM 14847 / LMG 12228 / 1C / PRS 101 / PAO1), UniProt P47205); test: biochemical; assay type: biochemical; conditions: class symbols A/B/C by IC50; Table 3; read-out: Enzyme inhibitory activity (inhibitory activity on Pseudomonas aeruginosa LpxC enzyme)
Experimental: Test 1: Evaluation of the Inhibitory Activity on Pseudomonas aeruginosa LpxC Enzyme
An inhibition curve was constructed for each test compound by performing the aforementioned reaction at varying concentrations of the test compound. From this inhibition curve, the concentration of the test compound at which the formation of the reaction product was suppressed by 50% was determined as the IC50 of the test compound, which was an index for the inhibitory activity on Pseudomonas aeruginosa LpxC enzyme.

IC50 [nM] | SMILES
< 10 | CNC(=O)[C@@](C)(C(=O)NO)N(C)C(=O)c1ccc(C#Cc2coc(CN3CCOCC3)c2)cc1 [Compound 592, (2S)-N-hydroxy-N′,2-dimethyl-2-[methyl(4-{[5-(morpholin-4-ylmethyl)furan-3-yl]ethynyl}benzoyl)amino]propanediamide]
< 10 | CCCC(C)(C)CNCc1ccc(C#Cc2ccc(C(=O)N(C)C(C(=O)NC)C(=O)NO)cc2)cc1 (centres unmarked) [Compound 510, 2-[({4-[(4-{[(2,2-dimethylpentyl)amino]methyl}phenyl)ethynyl]phenyl}carbonyl)(methyl)amino]-N-hydroxy-N′-methylpropanediamide]
10 to 100 | CNC(=O)C(C(=O)NO)N(C)C(=O)c1ccc(C#Cc2ccc(CN3CC(C)(C)C3)cc2)cc1 (centres unmarked) [Compound 525, 2-[{[4-({4-[(3,3-dimethylazetidin-1-yl)methyl]phenyl}ethynyl)phenyl]carbonyl}(methyl)amino]-N-hydroxy-N′-methylpropanediamide]

same assay, conditions: inhibitory activity on Pseudomonas aeruginosa LpxC enzyme, class symbols A/B/C; read-out: Enzyme inhibitory activity

SMILES | IC50 [nM]
CC(C)NC(=O)C(NC(=O)c1ccc(-c2ccc(OCCO)cc2)cc1)C(=O)NO (centres unmarked) [Compound 143, N-hydroxy-2-({[4′-(2-hydroxyethoxy)biphenyl-4-yl]carbonyl}amino)-N′-(propan-2-yl)propanediamide] | 10 to 100
CNC(=O)C(C(=O)NO)N(C)C(=O)c1ccc(C#Cc2ccc(OCCN3CCCOCC3)cc2)cc1 (centres unmarked) [Compound 381, N-hydroxy-N′-methyl-2-(methyl {[4-({4-[2-(1,4-oxazepan-4-yl)ethoxy]phenyl}ethynyl)phenyl]carbonyl}amino)propanediamide] | < 10
CN(C(=O)c1ccc(-c2ccccc2)cc1)C(C(=O)NO)C(=O)NCc1ccccn1 (centres unmarked) [Compound 161, 2-[(biphenyl-4-ylcarbonyl)(methyl)amino]-N-hydroxy-N′-(pyridin-2-ylmethyl)propanediamide] | 10 to 100
CNC(=O)C(C(=O)NO)N(C)C(=O)c1ccc(C#Cc2ccc(C(C)N)cc2)cc1 (centres unmarked) [Compound 358, 2-{[(4-{[4-(1-aminoethyl)phenyl]ethynyl}phenyl)carbonyl](methyl)amino}-N-hydroxy-N′-methylpropanediamide] | 10 to 100
CNC(=O)C(C(=O)NO)N(C)C(=O)c1ccc(C#C/C=C/c2ccc(OC)nc2)cc1 (centres unmarked) [Compound 478, N-hydroxy-2-[({4-[(3E)-4-(6-methoxypyridin-3-yl)but-3-en-1-yn-1-yl]phenyl}carbonyl)(methyl)amino]-N′-methylpropanediamide] | < 10
CNC(=O)C(NC(=O)c1ccc(-c2ccc(OCCOCCO)cc2)cc1)C(=O)NO (centres unmarked) [Compound 14, N-hydroxy-2-[({4′-[2-(2-hydroxyethoxy)ethoxy]biphenyl-4-yl}carbonyl)amino]-N′-methylpropanediamide] | < 10
CNC(=O)C(C(=O)NO)N(C)C(=O)c1ccc(-c2ccc(NCCCNc3ccccc3)cc2)cc1 (centres unmarked) [Compound 100, N-hydroxy-N′-methyl-2-{methyl[(4′-{[3-(phenylamino)propyl]amino}biphenyl-4-yl)carbonyl]amino}propanediamide] | < 10
CNC(=O)C(C(=O)NO)N(CC(F)F)C(=O)c1ccc(-c2ccc(OCCCN3CCOCC3)cc2)cc1 (centres unmarked) [Compound 225, 2-[(2,2-difluoroethyl)({4′-[3-(morpholin-4-yl)propoxy]biphenyl-4-yl}carbonyl)amino]-N-hydroxy-N′-methylpropanediamide] | < 10
CNC(=O)C(C(=O)NO)N(C)C(=O)c1ccc(-c2ccc(OCc3ccc(CN4CCOCC4)cc3)cc2)cc1 (centres unmarked) [Compound 91, N-hydroxy-N′-methyl-2-{methyl[(4′-{[4-(morpholin-4-ylmethyl)benzyl]oxy}biphenyl-4-yl)carbonyl]amino}propanediamide] | < 10
O=C(NC(C(=O)NO)C(=O)NCc1cocn1)c1ccc(-c2ccc(OCCO)cc2)cc1 (centres unmarked) [Compound 157, N-hydroxy-2-({[4′-(2-hydroxyethoxy)biphenyl-4-yl]carbonyl}amino)-N′-(1,3-oxazol-4-ylmethyl)propanediamide] | < 10
Cc1cc(CNC(=O)C(NC(=O)c2ccc(-c3ccc(OCCO)cc3)cc2)C(=O)NO)no1 (centres unmarked) [Compound 133, N-hydroxy-2-({[4′-(2-hydroxyethoxy)biphenyl-4-yl]carbonyl}amino)-N′-[(5-methyl-1,2-oxazol-3-yl)methyl]propanediamide] | < 10
Cn1ccc(CNC(=O)C(NC(=O)c2ccc(-c3ccc(OCCO)cc3)cc2)C(=O)NO)n1 (centres unmarked) [Compound 140, N-hydroxy-2-({[4′-(2-hydroxyethoxy)biphenyl-4-yl]carbonyl}amino)-N′-[(1-methyl-1H-pyrazol-3-yl)methyl]propanediamide] | < 10
CNC(=O)C(C(=O)NO)N(C)C(=O)c1ccc(C#Cc2ccc(CN3CCC(OC)CC3)cc2)cc1 (centres unmarked) [Compound 383, N-hydroxy-2-[{[4-({4-[(4-methoxypiperidin-1-yl)methyl]phenyl}ethynyl)phenyl]carbonyl}(methyl)amino]-N′-methylpropanediamide] | < 10
CNC(=O)C(C(=O)NO)N(C)C(=O)c1ccc(C#Cc2ccoc2)cc1 (centres unmarked) [Compound 461, 2-[{[4-(furan-3-ylethynyl)phenyl]carbonyl}(methyl)amino]-N-hydroxy-N′-methylpropanediamide] | 10 to 100

The next lines start with the values.

IC50 [nM] | SMILES
10 to 100 | CCCCc1ccc(-c2ccc(C(=O)N(C)C(C(=O)NC)C(=O)NO)cc2)cn1 (centres unmarked) [Compound 474, 2-[{[4-(6-butylpyridin-3-yl)phenyl]carbonyl}(methyl)amino]-N-hydroxy-N′-methylpropanediamide]
10 to 100 | CNC(=O)C(C(=O)NO)N(C)C(=O)c1ccc(-c2ccc(OCCN3CCOCC3)cc2)cc1 (centres unmarked) [Compound 243, N-hydroxy-N′-methyl-2-[methyl({4′-[2-(morpholin-4-yl)ethoxy]biphenyl-4-yl}carbonyl)amino]propanediamide]
< 10 | CNC(=O)C(C(=O)NO)N(C)C(=O)c1ccc(-c2ccc(CCCO)cc2)cc1 (centres unmarked) [Compound 165, N-hydroxy-2-[{[4′-(3-hydroxypropyl)biphenyl-4-yl]carbonyl}(methyl)amino]-N′-methylpropanediamide]
10 to 100 | CNC(=O)C(C(=O)NO)N(C)C(=O)c1ccc(-c2ccc(CCC(=O)N(C)C)cc2)cc1 (centres unmarked) [Compound 266, 2-[({4′-[3-(dimethylamino)-3-oxopropyl]biphenyl-4-yl}carbonyl)(methyl)amino]-N-hydroxy-N′-methylpropanediamide]
10 to 100 | CNC(=O)C(C(=O)NO)N(C)C(=O)c1ccc(-c2c(F)cccc2F)cc1 (centres unmarked) [Compound 233, 2-{[(2′,6′-difluorobiphenyl-4-yl)carbonyl](methyl)amino}-N-hydroxy-N′-methylpropanediamide]
< 10 | CNC(=O)C(C(=O)NO)N(C)C(=O)c1ccc(-c2ccc(OCc3coc(C)n3)cc2)cc1 (centres unmarked) [Compound 99, N-hydroxy-N′-methyl-2-[methyl({4′-[(2-methyl-1,3-oxazol-4-yl)methoxy]biphenyl-4-yl}carbonyl)amino]propanediamide]
10 to 100 | CNC(=O)C(C(=O)NO)N(C)C(=O)c1ccc(-c2ccc3c(c2)cc(CN2CCOCC2)n3C)cc1 (centres unmarked) [Compound 46, N-hydroxy-N′-methyl-2-(methyl {4-[1-methyl-2-(morpholin-4-ylmethyl)-1H-indol-5-yl]benzoyl}amino)propanediamide]
10 to 100 | CNC(=O)C(C(=O)NO)N(C)C(=O)c1ccc(-c2ccc(N3CCOC3=O)cc2)cc1 (centres unmarked) [Compound 247, N-hydroxy-N′-methyl-2-(methyl {[4′-(2-oxo-1,3-oxazolidin-3-yl)biphenyl-4-yl]carbonyl}amino)propanediamide]
< 10 | CNC(=O)C(C(=O)NO)N(C)C(=O)c1ccc(-c2ccc(N(C)CC3CC3)cc2)cc1 (centres unmarked) [Compound 85, 2-[({4′-[(cyclopropylmethyl)(methyl)amino]biphenyl-4-yl}carbonyl)(methyl)amino]-N-hydroxy-N′-methylpropanediamide]
< 10 | CNC(=O)C(C(=O)NO)N(C)C(=O)c1ccc(-c2ccc3c(c2)cc(COCOC)n3C)cc1 (centres unmarked) [Compound 33, N-hydroxy-2-[(4-{2-[(methoxymethoxy)methyl]-1-methyl-1H-indol-5-yl}benzoyl)(methyl)amino]-N′-methylpropanediamide]
< 10 | CNC(=O)C(C(=O)NO)N(C)C(=O)c1ccc(-c2ccc(OCCCN3CCC(F)(F)CC3)cc2)cc1 (centres unmarked) [Compound 264, 2-[({4′-[3-(4,4-difluoropiperidin-1-yl)propoxy]biphenyl-4-yl}carbonyl)(methyl)amino]-N-hydroxy-N′-methylpropanediamide]
10 to 100 | CNC(=O)C(C(=O)NO)N(C)C(=O)c1ccc(-c2ccc(OC)nc2)cc1 (centres unmarked) [Compound 449, N-hydroxy-2-[{[4-(6-methoxypyridin-3-yl)phenyl]carbonyl}(methyl)amino]-N′-methylpropanediamide]
< 10 | CNC(=O)C(C(=O)NO)N(C)C(=O)c1ccc(-c2ccc3c(c2)cc(CO)n3C)cc1 (centres unmarked) [Compound 41, N-hydroxy-2-[{4-[2-(hydroxymethyl)-1-methyl-1H-indol-5-yl]benzoyl}(methyl)amino]-N′-methylpropanediamide]
< 10 | CNC(=O)C(C(=O)NO)N(C)C(=O)c1ccc(-c2ccc(SCCOC)cc2)cc1 (centres unmarked) [Compound 291, N-hydroxy-2-[({4′-[(2-methoxyethyl)sulfanyl]biphenyl-4-yl}carbonyl)(methyl)amino]-N′-methylpropanediamide]
10 to 100 | CNC(=O)C(C(=O)NO)N(C)C(=O)c1ccc(-c2ccc(OCCCN(C)C)cc2)cc1 (centres unmarked) [Compound 274, 2-[({4′-[3-(dimethylamino)propoxy]biphenyl-4-yl}carbonyl)(methyl)amino]-N-hydroxy-N′-methylpropanediamide]

Reference: patent publication US9073821B2, “Hydroxamic acid derivative” (priority 2010, dated 2015)
